Measured values: patent US20030028906A1, “Gene control” (priority 1995, published 2003)

What was measured:
[1] = test system: CYP1A1/β-galactosidase promoter/reporter; assay: β-galactosidase staining of tissue sections from transgenic mice carrying pAhIR1β-gal after 3-MC induction; conditions: for β-Galactosidase staining intensity: mice carrying pAHIR1, 3-MC 40 μg/g once a day for 3 days; for induction of lacZ expression in the liver: 9 kb rat CYP1A1 promoter-lacZ transgenic mice, IP 40 mg/kg for 3 days, 40 mg/kg
From the text: The protocol described below has been adapted to analyse the β-galactosidase expression from transgenic mice and in this regard determine the activity of the P450 1A1 promoter which is effectively driving the expression of this transgene in response to induction of P450 1A1 by the carcinogenic agent 3-methylcholanthrene. All timings in this protocol are critical.
When performing this technique it is essential to incorporate a positive control into the reaction where a tissue sample which is a known expresser of β-galactosidase is treated in an identical manner to that of the test tissues. […] The positive control used in these experiments was a small intestine sample which was a known high expressor of the detection enzyme.
1) The mouse under test was killed by cervical dislocation and the organs required were removed using a sterile scalpel. A small representative piece of mouse organ was fixed on to moistened cork using commercial adhesive. The tissue sample on the cork was then frozen in liquid nitrogen chilled freezing spray (Histological Supplies LTD) for approximately 30 seconds. The tissue sample was then double wrapped in parafilm, placed in a plastic bag, sealed and snap frozen in liquid nitrogen.
4) The metal chuck was placed in the cryostat holder and turned until the tip of the tissues touched the front of the cutting blade. The cryostat was set to obtain small sections approximately 8 microns thickness. By turning the handle of the cryostat small sections of tissue were obtained. Sections were continually taken until a representative section of tissue was obtained. The antiroll plate was then placed against the blade and a section to be harvested was cut.
9) Slides were produced as described using the cryostat and the tissue was fixed in 0.5% glutaraldehyde (in PBS) for 1 day at 4° C. 10) The tissue was then incubated in PBS +2mM MgCl2+30% sucrose at 4° C. overnight.
13) 2-3 hours in X-gal solution at 37° C. or even overnight.
19) The slides were then mounted in DPX and viewed under a microscope. It was important at this stage that the slides were never permitted to dry out since this will affect the quality of the results. The slides should be continually dipped into the histoclear solution to prevent this occurring while the slides are being prepared.
The expected results from the β-galacotsidase staining assay are areas of pink which uniformly stain the tissue section and small areas of blue in the tissue section which indicate areas where X-gal has been metabolised by the β-galactosidase enzyme.
The inducibility of expression. The pAhIR1βgal transgene in the liver was examined after administration of 3-methylcholanthrene (3-mc). The inducing agent was administered IP at a dosage of 40 mg/kg for 3 days and the animals were sacrificed for expression on day four. The induction in the transgenic animals was controlled by:
a) administration of corn oil to transgenic mice,
b) the administration of 3-methylcholanthrene (3-mc) to non-transgenic littermates.
lacZ expression was also investigated in a number of other tissues. The same procedure for sectioning and staining tissue sections was employed.

[2] = test system: modified Ah receptor; assay: Induction of the transgene in DBA mice; type: in vivo, mouse
From the text: (§1) In addition to the use of this promoter as a general regulatable system for the expression of transgenes this strategy can be exploited to obtain expression targeted to specific cell types. Thus, for example, when the transgene is incorporated into cells containing a modified hydrocarbon receptor, the inducability of the transgene is modulated. […] In addition, the introduction of an Ah receptor responsive to 3-methylcholanthrene into a specific cell, e.g. through the use of a tissue-specific promoter element, will allow tissue-specific induction of a transgene in this mouse on administration of 3-methylcholanthrene. This strategy exploits the fact that the Ah receptor in DBA mice through mutation is non-responsive to certain classes of agents which induce by this mechanism. […] Therefore, using a combination of different forms of the Ah receptor with different types of inducing agent will allow much more precise regulation of transgene expression in cells.

[3] = test system: CYP1A1 dioxin-responsive promoter coupled to CAT reporter gene; conditions: 2.58 kbp mouse CYP1A1 fragment-CAT transgenic mice, cited from earlier work
[4] = test system: β-galactosidase activity; assay: β-galactosidase staining of tissue sections from non-transgenic controls treated with 3-MC; type: in vivo, mouse
From the text: All timings in this protocol are critical.

[5] = test system: Ah receptor; assay: Induction of the transgene in C57 BL6 mice; type: in vivo, mouse
From the text: as §1

For Cc1ccc2cc3c(ccc4ccccc43)c3c2c1CC3 [3-methylcholanthrene], the β-Galactosidase staining intensity ([1]; Adrenal gland) was “+++”, the β-Galactosidase staining intensity ([1]; Colon) was “+” and the β-Galactosidase staining intensity ([1]; Duodenum) was “+++”. The β-Galactosidase staining intensity ([1]; Forestomach) was “+”, the β-Galactosidase staining intensity ([1]; Ileum) was “+++” and the β-Galactosidase staining intensity ([1]; Jejunum) was “+++”. For the same molecule, the β-Galactosidase staining intensity ([1]; Kidney) was “++”, the “3-mc induced lacZ expression in tissues” value ([1]; Liver, Kidney, Brain (specific regions), Duodenum, Jejunum, Ileum, Lung, Spleen, Oesophagus, Colon, Pancreas, Adrenal Gland, Ovary) was “detected” and the β-Galactosidase staining intensity ([1]; Liver) was “++++”. The β-Galactosidase staining intensity ([1]; Lung) was “+”, the β-Galactosidase staining intensity ([1]; Oesophagus) was “++” and the β-Galactosidase staining intensity ([1]; Ovary) was “+”. The β-Galactosidase staining intensity ([1]; Pancreas) was “+”, the β-Galactosidase staining intensity ([1]; Spleen) was “++” and the β-Galactosidase staining intensity ([1]; Stomach) was “+”. For the same molecule, the β-Galactosidase staining intensity ([1]; Testes) was “+”, the “induction of lacZ expression in the liver” value ([1]; listed as 3-mc) was “very high” and the “induction of lacZ expression in the liver” value ([1]; listed as 3-methyl-cholanthene) was “massive induction”. The “induction of expression in spleen and bowel” value ([1]; spleen and bowel, 9 kb rat CYP1A1 promoter transgenic mice) was “substantial induction”, the “induction of the transgene” value [2] was “not an inducer of the transgene” and the “increase of hepatic expression levels (CAT reporter)” value ([3]; liver, versus mock-induction) was ≤ 10,000 fold. The “induction of CAT expression” value ([3]; spleen, small bowel, kidney and lung) was “More modest levels of induction”, the β-Galactosidase staining intensity ([4]; Duodenum) was “+” and the β-Galactosidase staining intensity ([4]; Ileum) was “+”. For the same molecule, the β-Galactosidase staining intensity ([4]; Jejunum) was “+”, the β-Galactosidase staining intensity ([4]; Kidney) was “+” and the “induction of the transgene” value [5] was “an inducer of the transgene”.

In the case of Clc1cc2c(cc1Cl)Oc1cc(Cl)c(Cl)cc1O2 [tetrachlorodibenzodioxin], the “induction of the transgene” value [2] is reported as “induction can still be obtained”.
